16 compounds from patent publication US11236055B2 (Venenum Biodesign, LLC, priority 2016, dated 2022) can be followed below.

One assay has as its system Mouse STC-1 cells. The assay can be described thus: STC-1 GLP-1 assay. It counts as cell-based. The conditions noted are these: GLP-1 secretion, 2 h, coded A-C, read-out: Mouse STC-1 HTRF GLP-1 Activity (EC50). The gist of the method:
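Cells were seeded two days before in charcoal-stripped FBS medium, then exposed 2 h at 37 °C to compounds (12-point half-log series) in HBSS with protease inhibitors, DPP-IV inhibitor and 0.1% fatty acid free BSA. Active GLP-1 in supernatants measured by HTRF; EC50 derived.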
A general note: TR-FRET usually uses a lanthanide donor and a delayed reading to cut background.

Another assay addresses T1, human TGR5 receptor (Homo sapiens, UniProt Q8TDU6).
T1 construct: host or cells: CHO-K1 (hTGR5-CHO cells)
T1 sequence (Q8TDU6 1-330): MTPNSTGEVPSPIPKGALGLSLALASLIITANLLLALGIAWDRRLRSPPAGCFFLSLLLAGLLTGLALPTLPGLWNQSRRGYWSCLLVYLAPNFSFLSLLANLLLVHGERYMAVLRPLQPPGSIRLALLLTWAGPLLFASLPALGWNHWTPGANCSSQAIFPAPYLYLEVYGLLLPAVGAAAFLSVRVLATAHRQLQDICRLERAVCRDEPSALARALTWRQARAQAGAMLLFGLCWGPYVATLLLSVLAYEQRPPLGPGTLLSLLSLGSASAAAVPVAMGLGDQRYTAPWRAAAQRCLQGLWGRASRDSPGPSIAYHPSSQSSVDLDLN
The assay can be described thus: Human TGR5 cAMP production assay. It is filed as cell-based. To be noted: human TGR5, luminescent cAMP assay; coded A-D; read-out: Human TGR5 Lum. cAMP Activity (EC50). In outline: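 CHO-K1 cells stably expressing human TGR5, with IBMX and cAMP antibody, were exposed to half-log serially diluted compound for 1 h at room temperature. cAMP measured by enzyme-fragment complementation luminescence (XS+ kit) after overnight incubation; EC50 values reported.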

Broadly, the EC50 is the concentration giving half of the maximal effect. Regarding `Cc1cnccc1-c1cccc([C@H](C)N(CCCC(=O)NCCS(=O)(=O)NCCC(=O)O)S(=O)(=O)c2cccc(Cl)c2C)c1` [Compound 21AL], the figures for the EC50 in the assay on Mouse STC-1 cells and at human TGR5 receptor were 100 to 999 nM and less than 100 nM, respectively.

Take `Cc1cnccc1-c1cccc([C@H](C)N(CCCC(=O)NCCS(=O)(=O)NCC(=O)O)S(=O)(=O)c2cccc(Cl)c2C)c1` [Compound 21AN, (S) 2-(3-(4-(3-chloro-2-methyl-N-(1-(3-(3-methylpyridin-4-yl)phenyl)ethyl)phenylsulfonamido)butanamido)ethylsulfonamido)acetic acid]: the EC50 was 100 to 999 nM in the assay on Mouse STC-1 cells and less than 100 nM at human TGR5 receptor.

For the compound `CCc1cnccc1-c1cccc([C@H](C)N(CCCC(=O)NCCS(=O)(=O)O)S(=O)(=O)c2cccc(Cl)c2C)c1` [Compound 21AQ, (S)-2-(4-(3-chloro-N-(1-(3-(3-ethylpyridin-4-yl)phenyl)ethyl)-2-methylphenylsulfonamido)butanamido)ethanesulfonic acid], the EC50 in the assay with Mouse STC-1 cells is 100 to 999 nM; on human TGR5 receptor, less than 100 nM.

Consider `CCc1cnccc1-c1cccc([C@H](C)N(CCCC(=O)NCCS(=O)(=O)NCC(=O)O)S(=O)(=O)c2cccc(Cl)c2C)c1` [Compound 21AT, (S) 2-(3-(4-(3-chloro-2-methyl-N-(1-(3-(3-ethylpyridin-4-yl)phenyl)ethyl)phenylsulfonamido)butanamido)ethylsulfonamido)acetic acid], for which the EC50 in the assay with Mouse STC-1 cells is 100 to 999 nM; at human TGR5 receptor, less than 100 nM.

As for `Cc1cnccc1-c1cccc([C@H](C)N(CCCC(=O)NCCNS(=O)(=O)CC(=O)O)S(=O)(=O)c2cccc(Cl)c2C)c1` [Compound 26AA], the half-maximal effective concentration (EC50) is 100 to 999 nM in the assay with Mouse STC-1 cells and less than 100 nM at human TGR5 receptor.

In the case of `Cc1cnccc1-c1cccc([C@H](C)N(CCCC(=O)NCCNS(=O)(=O)CCC(=O)O)S(=O)(=O)c2cccc(Cl)c2C)c1` [Compound 26AB], the EC50 in the assay on Mouse STC-1 cells was 100 to 999 nM; on human TGR5 receptor it was less than 100 nM.

With `Cc1cnccc1-c1cccc([C@H](C)N(CCCCNC(=O)NCCS(=O)(=O)NCC(=O)O)S(=O)(=O)c2ccccc2C(F)(F)F)c1` [Compound 28AA, (S)-2-(3-(4-(N-(1-(3-(3-methylpyridin-4-yl)phenyl)ethyl)-2-(trifluoromethyl)phenylsulfonamido)butyl)ureido)ethanesulfonamido acetic acid], the figures for the EC50 in the assay with Mouse STC-1 cells and on human TGR5 receptor were 100 to 999 nM and less than 100 nM, respectively.

Consider `Cc1cnccc1-c1cccc([C@H](C)N(CCCCNC(=O)NCS(=O)(=O)O)S(=O)(=O)c2ccccc2C(F)(F)F)c1` [Compound 28AC, (S)-(3-(4-(N-(1-(3-(3-methylpyridin-4-yl)phenyl)ethyl)-2-(trifluoromethyl)phenylsulfonamido)butyl)ureido)methanesulfonic acid], for which the figures for the EC50 in the assay with Mouse STC-1 cells and at human TGR5 receptor were 1000 to 30000 nM and less than 100 nM, respectively.

For the compound `CCc1cnccc1-c1cccc([C@H](C)N(CCCCNC(=O)NCS(=O)(=O)O)S(=O)(=O)c2ccccc2C(F)(F)F)c1` [Compound 28AH, (S)-(3-(4-(N-(1-(3-(3-ethylpyridin-4-yl)phenyl)ethyl)-2-(trifluoromethyl)phenylsulfonamido)butyl)ureido)methanesulfonic acid], the figures for the EC50 in the assay with Mouse STC-1 cells and at human TGR5 receptor were 100 to 999 nM and less than 100 nM, respectively.

With `Cc1cnccc1-c1cccc(C(C)(C)N(CCCNC(=O)NCS(=O)(=O)O)S(=O)(=O)c2cccc(Cl)c2C)c1` [Compound 29, (3-(3-((3-Chloro-2-methyl-N-(2-(3-(3-methylpyridin-4-yl)phenyl)propan-2-yl)phenyl)sulfonamide)propyl)ureido) methanesulfonic acid], the EC50 in the assay on Mouse STC-1 cells is 100 to 999 nM; on human TGR5 receptor, less than 100 nM.

For the compound `Cc1cnccc1-c1cccc(C(C)(C)N(CCCNC(=O)NCCS(=O)(=O)O)S(=O)(=O)c2cccc(Cl)c2C)c1` [Compound 29AA, 2-(3-(3-((3-Chloro-2-methyl-N-(2-(3-(3-methylpyridin-4-yl)phenyl)propan-2-yl)phenyl)sulfonamide)propyl)ureido)ethane-1-sulfonic acid], the values for the EC50 in the assay with Mouse STC-1 cells and at human TGR5 receptor were 100 to 999 nM and less than 100 nM, respectively.

For `Cc1cnccc1-c1cccc([C@H](C)N(CCCCNC(=O)CS(=O)(=O)O)S(=O)(=O)c2ccccc2C(F)(F)F)c1` [Compound 31AA, (S)-2-((4-(N-(1-(3-(3-methylpyridin-4-yl)phenyl)ethyl)-2-(trifluoromethyl)phenylsulfonamido)butyl)amino)-2-oxoethanesulfonic acid], the EC50 is 100 to 999 nM with Mouse STC-1 cells and less than 100 nM at human TGR5 receptor.

Turning to `Cc1cnccc1-c1cccc([C@H](C)N(CCCCNC(=O)[C@@H](N)CS(=O)(=O)O)S(=O)(=O)c2ccccc2C(F)(F)F)c1` [Compound 31AC, (R)-2-amino-3-((4-(N-((S)-1-(3-(3-methylpyridin-4-yl)phenyl)ethyl)-2-(trifluoromethyl)phenylsulfonamido)butyl)amino)-3-oxopropane-1-sulfonic acid], the EC50 with Mouse STC-1 cells was 100 to 999 nM; on human TGR5 receptor, less than 100 nM.

On to `CCc1cnccc1-c1cccc([C@H](C)N(CCCC(=O)NCCNS(N)(=O)=O)S(=O)(=O)c2cccc(Cl)c2C)c1` [Compound 37AA, (S)-4-(3-chloro-N-(1-(3-(3-ethylpyridin-4-yl)phenyl)ethyl)-2-methylphenylsulfonamido)-N-(2-(sulfamoylamino)ethyl)butanamide], for which the EC50 was 100 to 999 nM with Mouse STC-1 cells and less than 100 nM on human TGR5 receptor.

In the case of `Cc1cnccc1-c1cccc([C@H](C)N(CCCC(=O)NCCNS(=O)(=O)NCC(=O)O)S(=O)(=O)c2cccc(Cl)c2C)c1` [Compound 38], the EC50 with Mouse STC-1 cells was 100 to 999 nM; on human TGR5 receptor, less than 100 nM.

With `CCc1cnccc1-c1cccc(C2CN(C(=O)CS(=O)(=O)O)CCN2S(=O)(=O)c2cccc(Cl)c2C)c1` (centres unmarked) [Compound 49, 2-(4-((3-Chloro-2-methylphenyl)sulfonyl)-3-(3-(3-ethylpyridin-4-yl)phenyl)piperazin-1-yl)-2-oxoethanesulfonic acid], the EC50 in the assay on Mouse STC-1 cells is 100 to 999 nM; on human TGR5 receptor it was less than 100 nM.
